Source: patent publication US20100056522A1, “INTRAOCULAR PRESSURE-LOWERING AGENT COMPRISING COMPOUND HAVING HISTONE DEACETYLASE INHIBITOR EFFECT AS ACTIVE INGREDIENT” (Santen Pharmaceutical Co., Ltd., priority 2007, published 2010)
Values belong to the compound of their own block, whether it stands above or below them.

Experiments:
[1] = test system: HDAC (HeLa nuclear extract); experiment: Test for evaluation of an HDAC inhibitory effect (HDAC Fluorimetric Assay/Drug Discovery Kit, Biomol); format: biochemical; details: final concentration of test compound 30 μM, rates of more than 100% are shown as 100%
Protocol: Using HDAC Fluorimetric Assay/Drug Discovery Kit (manufactured by Biomol), an HDAC inhibitory effect of the present compounds was measured according to the protocol included with the kit. The kit contains Buffer, HeLa nuclear extract (includes an HDAC), Substrate, Developer and Trichostatin A (an HDAC inhibitor).
A test compound was dissolved in dimethyl sulfoxide, whereby a 2 mg/mL solution was prepared. Then, the resulting solution was diluted with Buffer containing 5% dimethyl sulfoxide, whereby a 150 μM test compound solution was prepared.
1) To a 384-well culture plate, the test compound solution was added in an amount of 2 μL per well.
2) HeLa nuclear extract was diluted 30-fold with Buffer. The resulting solution was added in an amount of 3 μL per well and then, incubation was performed at 37° C. for 2 hours.
3) Substrate was diluted 500-fold with Buffer. The resulting solution was added in an amount of 5 μL per well (the final concentration of the test compound was 30 μM) and then, incubation was performed at 37° C. for 10 minutes.
4) Developer was diluted 20-fold with Buffer and Trichostatin A (2 μM) was added to it. The resulting solution was added in an amount of 10 μL per well and then, incubation was performed at room temperature for 15 minutes.
5) The fluorescence intensity of each well was measured using multilabel counter ARVO (manufactured by Wallac) with excitation at 360 nm and emission at 460 nm.
6) A control data was obtained from the same experiment except that Buffer containing 5% DMSO was added instead of the test compound solution as the above-mentioned procedure from 1) to 5).
7) A blank data was obtained from the same experiment except that Buffer containing 5% DMSO was added instead of the test compound solution and that Buffer was added instead of Hela nuclear extract as the above-mentioned procedure from 1) to 5).
Enzyme inhibitory rate (%) was calculated using the following equation.
(Enzyme Inhibitory Rate(%))=100×[1−{(Fluorescence Intensity of Test Compound Solution)−(Florescence Intensity of Blank)}/{(Florescence Intensity of Control)−(Florescence Intensity of Blank)}]

[2] = test system: TM-1 cells (human trabecular meshwork cell line); experiment: Test for evaluation of effect of morphological change on trabecular meshwork cells (cell shape index); format: cell-based; details: 10 μM, 24 hours, control CSI 0.679, lower CSI indicates greater morphological change
Protocol: As a method for evaluating a cellular morphological change, an evaluation system using the cell shape index (hereinafter referred to as “CSI”) as an index has been reported in The Journal of Clinical Investigation, 103, 1141-1150 (1999). Therefore, according to the method described in the above document, an effect of morphological change by the present compounds on trabecular meshwork cells was evaluated.
A human trabecular meshwork cell line (hereinafter referred to as “TM-1 cells”) reported in Investigative Opthalmology & Visual Science, 43, 151-161 (2002) was used.
Culture medium 1: A reagent was prepared by adding fetal bovine serum (10%), L-glutamine (2 mM), amphotericin B (2.5 μg/mL), and gentamicin (25 μg/mL) to Dulbecco's Modified Eagle Medium (hereinafter referred to as “D-MEM”).
Culture medium 2: Fetal bovine serum (3%), L-glutamine (2 mM), amphotericin B (2.5 μg/mL), and gentamicin (25 μg/mL) were added to D-MEM.
Cell staining liquid: A mixed liquid of Calcein-AM (16 μM) and Hoechst 33342 (40 μM) was prepared by diluting a Calcein-AM solution (cytoplasmic staining reagent, manufactured by Dojindo Laboratories) and a Hoechst 33342 solution (nuclear staining reagent, manufactured by Dojindo Laboratories) with D-MEM containing L-glutamine (2 mM), amphotericin B (2.5 μg/mL), and gentamicin (25 μg/mL).
TM-1 cells subcultured at 37° C. in a 8% carbon dioxide gas atmosphere were treated with a trypsin/EDTA solution (0.05% trypsin and 0.53 mM tetrasodium ethylenediaminetetraacetate) at 24 hours before performing a drug treatment mentioned below and seeded on a 96-well culture plate. The culture medium 1 was used for the subculture of the cells. The culture medium 2 was used for the cell culture after seeding the cells on the plate.
A test compound was dissolved in dimethyl sulfoxide, whereby a 5 mM solution was prepared. Then, the resulting solution was diluted with the culture medium 2, whereby a 200 μM test compound solution was prepared.
It has been reported that Y-27632 which is a Rho kinase inhibitor induces a morphological change in trabecular meshwork cells in Investigative Opthalmology & Visual Science, 42, 137-144 (2001). Therefore, Y-27632 (produced according to the method described in WO 90/05723) was used as a positive control, and dissolved in dimethyl sulfoxide in the same manner as the test compound, whereby a 5 mM solution was prepared, and then, the resulting solution was diluted with the culture medium 2, whereby a 200 μM positive control compound solution was prepared.
1) To a 96-well culture plate, a solution of TM-1 cells adjusted to a cell density of […] was added in an amount of 95 μL (1.5×10^4 cells) per well.
2) Incubation was performed at 37° C. in a 8% carbon dioxide gas atmosphere for 24 hours.
3) The test compound solution or positive control compound solution was added in an amount of 5 μL per well (the final concentration of the test compound or positive control compound was 10 μM). As a control, the culture medium 2 containing dimethyl sulfoxide (4%) was added in an amount of 5 μL per well.
4) Incubation was performed at 37° C. in a 8% carbon dioxide gas atmosphere for 24 hours.
5) The cell staining liquid was added in an amount of 10 μL per well.
6) Incubation was performed at 37° C. in a 8% carbon dioxide gas atmosphere for 1 hour to stain the cells.
7) A 37% formaldehyde solution was added in an amount of 10 μL per well.
8) Incubation was performed at room temperature for 1 hour to fix the cells.
9) Washing with phosphate-buffered saline was performed.
10) Using Array Scan Vti HCS reader (manufactured by Cellomics), images of stained cells magnified with a 20-fold objective lens were captured in 80 fields (10 fields×8 wells) per test compound addition group.
11) CSI was calculated for each cell and an average value was obtained for each test compound addition group.
CSI was calculated using the following equation.
CSI=4π×(Cell Area)/(Cell Perimeter)^2

[3] = test system: male Japanese White rabbits; experiment: Test for evaluation of intraocular pressure-lowering effect by intracameral administration; format: in vivo; details: 1 mM administration liquid, 20 μL intracameral, 8 or 9 hours after administration, vs vehicle control group, 6 cases
Protocol: In order to evaluate an intraocular pressure-lowering effect of the present compounds, a test for evaluation of intraocular pressure-lowering effect by intracameral administration of a drug using male Japanese White rabbits was performed.
A test compound was dissolved or suspended in physiological saline containing 0.5% dimethyl sulfoxide, whereby a 0.1 mM or 1 mM test compound administration liquid was prepared.
One drop of 0.4% oxybuprocaine hydrochloride eye drop was instilled into both eyes of each male Japanese White rabbit to achieve local anesthesia, and thereafter, the intraocular pressure was measured using an applanation tonometer. Then, by using a syringe fitted with a 30-gauge needle, the test compound administration liquid (20 μL) was intracamerally administered to one eye. As a control, 20 μL of the vehicle (physiological saline containing 0.5% dimethyl sulfoxide) for the test compound was intracamerally administered. After the lapse of a certain period of time from the administration of the test compound or vehicle, one drop of 0.4% oxybuprocaine hydrochloride eye drop was instilled into the administered eye to achieve local anesthesia, and thereafter, the intraocular pressure was measured using an applanation tonometer.
The intraocular pressure-lowering effect of each test compound was evaluated by calculating an intraocular pressure reduction rate. The intraocular pressure reduction rate (%) was calculated using the following equation.
(Intraocular Pressure Reduction Rate(%))=100×[{(Average Value of Intraocular Pressure of Control Group)−(Average Value of Intraocular Pressure of Each Test Compound Administration Group)}/(Average Value of Intraocular Pressure of Control Group)]

Enzyme Inhibitory Rate (%) [1]: 98%
SMILES: CN(C)CCN(Cc1ccc(C(=O)Nc2ccccc2N)nc1)C(=O)Nc1nccs1 [Compound 1-96, N-(2-Aminophenyl)-5-[1-(2-dimethylaminoethyl)-3-(1,3-thiazol-2-yl)ureidomethyl]pyridine-2-carboxylic acid amide]
CSI [2]: 0.489
Intraocular Pressure Reduction Rate (%) [3]: 18%

Enzyme Inhibitory Rate (%) [1]: 98%
SMILES: CCN(CC)CCCN(Cc1ccc(C(=O)Nc2ccccc2N)nc1)C(=O)Nc1ccc(F)c(F)c1 [Compound 1-46, N-(2-Aminophenyl)-5-[1-(3-diethylaminopropyl)-3-(3,4-difluorophenyl)ureidomethyl]pyridine-2-carboxylic acid amide]
CSI [2]: 0.547

Enzyme Inhibitory Rate (%) [1]: 96%
SMILES: CN(C)CCCN(Cc1ccc(C(=O)Nc2ccccc2N)nc1)C(=O)Nc1nccs1 [Compound 1-41, N-(2-Aminophenyl)-5-[1-(3-dimethylaminopropyl)-3-(1,3-thiazol-2-yl)ureidomethyl]pyridine-2-carboxylic acid amide]
CSI [2]: 0.499

Enzyme Inhibitory Rate (%) [1]: 98%
SMILES: CCN(CC)CCCN(Cc1ccc(C(=O)Nc2ccccc2N)nc1)C(=O)Nc1ccc(F)c([N+](=O)[O-])c1 [Compound 1-51, N-(2-Aminophenyl)-5-[1-(3-diethylaminopropyl)-3-(4-fluoro-3-nitrophenyl)ureidomethyl]pyridine-2-carboxylic acid amide]
CSI [2]: 0.518

Enzyme Inhibitory Rate (%) [1]: 98%
SMILES: CN(C)CCCN(Cc1ccc(C(=O)Nc2ccccc2N)nc1)C(=O)Nc1cccc(F)c1 [Compound 1-10, N-(2-Aminophenyl)-5-[1-(3-dimethylaminopropyl)-3-(3-fluorophenyl)ureidomethyl]pyridine-2-carboxylic acid amide]
CSI [2]: 0.528

Enzyme Inhibitory Rate (%) [1]: 100%
SMILES: COc1ccc(NC(=O)N(CCCN(C)C)Cc2ccc(C(=O)Nc3ccccc3N)nc2)cc1 [Compound 1-6, N-(2-Aminophenyl)-5-[1-(3-dimethylaminopropyl)-3-(4-methoxyphenyl)ureidomethyl]pyridine-2-carboxylic acid amide]
CSI [2]: 0.549

Second part, the compound before the results:

SMILES: Nc1ccccc1NC(=O)c1ccc(CNc2nccc(-c3cccnc3)n2)cc1 [MGCD-0103 free base, N-(2-Aminophenyl)-4-[4-(pyridin-3-yl)pyrimidin-2-ylaminomethyl]benzamide, reference compound]
Enzyme Inhibitory Rate (%) [1]: 96%
CSI [2]: 0.584
Intraocular Pressure Reduction Rate (%) [3]: 23%

SMILES: Nc1ccccc1NC(=O)c1ccc(CNC(=O)OCc2cccnc2)cc1 [MS 275, N-(2-Aminophenyl)-4-(pyridin-3-ylmethyloxycarbonylaminomethyl)benzamide, reference compound]
Enzyme Inhibitory Rate (%) [1]: 99%
CSI [2]: 0.552
Intraocular Pressure Reduction Rate (%) [3]: 13%

SMILES: O=C(CCCCCCC(=O)Nc1ccccc1)NO [SAHA, N-Hydroxy-N′-phenyloctanediamide, reference compound]
CSI [2]: 0.501
Intraocular Pressure Reduction Rate (%) [3]: 17%

SMILES: CC(/C=C/C(=O)NO)=C\[C@@H](C)C(=O)c1ccc(N(C)C)cc1 [Trichostatin A, reference compound]
Enzyme Inhibitory Rate (%) [1]: 100%
CSI [2]: 0.496
Intraocular Pressure Reduction Rate (%) [3]: 18%
